Experimental data published in patent US20230130766A1 (SALK INSTITUTE FOR BIOLOGICAL STUDIES, priority 2020, published 2023).

biological target: T1, ULK1 (Homo sapiens, UniProt O75385); experiment: ULK1 inhibition assay; assay type: biochemical; conditions: * = tested as a mixture of regioisomers
T1 sequence (O75385 1-1050): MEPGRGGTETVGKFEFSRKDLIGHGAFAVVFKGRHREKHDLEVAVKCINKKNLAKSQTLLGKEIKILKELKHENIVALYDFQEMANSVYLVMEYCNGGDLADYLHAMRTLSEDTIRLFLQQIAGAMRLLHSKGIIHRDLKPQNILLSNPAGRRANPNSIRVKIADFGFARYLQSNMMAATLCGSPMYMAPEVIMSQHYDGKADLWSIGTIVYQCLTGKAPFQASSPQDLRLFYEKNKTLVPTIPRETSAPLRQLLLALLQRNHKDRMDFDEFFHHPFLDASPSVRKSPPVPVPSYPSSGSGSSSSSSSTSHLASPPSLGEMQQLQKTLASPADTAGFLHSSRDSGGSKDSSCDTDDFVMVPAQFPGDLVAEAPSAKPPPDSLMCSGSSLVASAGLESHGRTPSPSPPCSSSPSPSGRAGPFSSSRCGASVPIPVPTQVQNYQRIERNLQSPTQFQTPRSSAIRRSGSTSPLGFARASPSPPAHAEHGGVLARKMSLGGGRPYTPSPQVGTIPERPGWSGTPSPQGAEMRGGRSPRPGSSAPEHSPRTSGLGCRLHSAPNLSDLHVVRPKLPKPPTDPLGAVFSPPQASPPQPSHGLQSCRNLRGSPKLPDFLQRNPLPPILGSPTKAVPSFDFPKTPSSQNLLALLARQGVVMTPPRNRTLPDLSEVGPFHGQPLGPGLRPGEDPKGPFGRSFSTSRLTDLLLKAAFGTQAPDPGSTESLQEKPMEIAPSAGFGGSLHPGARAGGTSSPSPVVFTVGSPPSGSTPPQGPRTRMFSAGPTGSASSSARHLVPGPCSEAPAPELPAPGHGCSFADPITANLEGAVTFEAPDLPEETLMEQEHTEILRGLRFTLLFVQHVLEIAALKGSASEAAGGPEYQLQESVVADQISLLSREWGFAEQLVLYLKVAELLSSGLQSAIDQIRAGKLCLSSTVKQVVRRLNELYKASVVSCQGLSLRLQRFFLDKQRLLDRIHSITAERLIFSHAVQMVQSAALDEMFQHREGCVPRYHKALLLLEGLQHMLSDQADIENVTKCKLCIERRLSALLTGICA

Row | IC50 [nM] | SMILES
1 | < 200 | COc1cc(Nc2ncc(Br)c(Oc3ccccc3C(=O)N3CCCC3)n2)cc(OC)c1OC [Compound 277]
2 | > 2000 | FC(F)(F)c1cnc(Nc2cccc3ncccc23)nc1NC1CC1 [Compound 278]
3 | < 200 | COc1cc(Nc2ncc(Br)c(Oc3ccccc3NC(=O)C3CC3)n2)cc(OC)c1OC [Compound 281]
4 | > 2000 | COc1cc(Nc2ncc(Br)c(Oc3ccccc3CN(C)C)n2)cc(OC)c1OC [Compound 283]
5 | > 2000 | O=C1CCc2cc(Nc3ncc(C(=O)O)c(NC4CC4)n3)ccc2N1 [Compound 286]
6 | > 2000 | N#Cc1cnc(NC2CC2)nc1Nc1ccc2c(c1)CCC(=O)N2 [Compound 287]
7 | > 2000 | COc1cc(Nc2ncc(Br)c(Oc3ccccc3-c3nc(C)co3)n2)cc(OC)c1OC [Compound 290]
8 | > 2000 | O=[N+]([O-])c1cnc(NC2CC2)nc1NC1CC1 [Compound 291b]
9 | < 200 | COc1cc(Nc2ncc(Br)c(Nc3ccccc3)n2)cc(OC)c1OC [Compound 293]
10 | < 200 | COC(=O)Nc1ccccc1Oc1nc(Nc2cc(OC)c(OC)c(OC)c2)ncc1Br [Compound 296]
11 | < 200 | FC(F)(F)c1cnc(Nc2ccc3nc[nH]c3c2)nc1Nc1cc(C2CCC2)[nH]n1 [Compound 297]
12 | < 200 | COc1cc(Nc2ncc(Br)c(Oc3ccccc3C(F)(F)F)n2)cc(OC)c1OC [Compound 299]
13 | > 2000 | O=C1CCc2cc(Nc3ncc(C(F)(F)F)c(Oc4ccccc4)n3)ccc2N1 [Compound 300a]
14 | > 2000 | O=C1CCc2cc(Nc3nc(Oc4ccccc4)ncc3C(F)(F)F)ccc2N1 [Compound 300b]
15 | < 200 | O=C1CCCc2cc(Nc3ncc(C(F)(F)F)c(NC4CC4)n3)ccc21 [Compound 301]
16 | < 200 | COc1cc(Nc2ncc(Br)c(Nc3ccccc3CO)n2)cc(OC)c1OC [Compound 303]
17 | < 200 | Nc1ccc(Nc2ncc(C(F)(F)F)c(NC3CC3)n2)cc1 [Compound 304a]
18 | > 2000 | FC(F)(F)c1cnc(Nc2ccc(Nc3ncc(C(F)(F)F)c(NC4CC4)n3)cc2)nc1NC1CC1 [Compound 304b]
19 | < 200 | FC(F)(F)c1cnc(Nc2ccc3c(c2)CCNC3)nc1NC1CC1 [Compound 309]
20 | < 200 | CC(C)(C)OC(=O)NCCCNc1nc(Nc2ccc3c(c2)CCC(=O)N3)ncc1C(F)(F)F [Compound 310]
21 | < 200 | O=C(C1CC1)N(C(=O)C1CC1)c1ccc(Nc2ncc(C(F)(F)F)c(NC3CC3)n2)cc1 [Compound 311]
22 | < 200 | O=C(Nc1ccc(Nc2ncc(C(F)(F)F)c(NC3CC3)n2)cc1)C1CC1 [Compound 312]

Row | IC50 [nM] | SMILES
23 | < 200 | NCCCNc1nc(Nc2ccc3c(c2)CCC(=O)N3)ncc1C(F)(F)F [Compound 313]
24 | < 200 | O=C1NC(=O)c2cc(Nc3ncc(C(F)(F)F)c(NC4CC4)n3)ccc21 [Compound 314]
25 | < 200 | CNC(=O)CCOc1nc(Nc2cc(OC)c(OC)c(OC)c2)ncc1Br [Compound 316]
26 | < 200 | COc1cc(Nc2ncc(Br)c(Nc3ccccc3O)n2)cc(OC)c1OC [Compound 317]
27 | > 2000 | CNC(=O)c1ccc(OC)cc1Oc1ncc(Br)c(Nc2cc(OC)c(OC)c(OC)c2)n1 [Compound 318b]
28 | > 2000 | COc1cc(Nc2ncc(Br)c(Oc3ccccc3NC(=O)C(C)(C)C)n2)cc(OC)c1OC [Compound 320]
29 | > 2000 | CC(=O)Nc1ccccc1Oc1nc(Nc2ccc3c(c2)OCO3)ncc1Br [Compound 321a]
30 | < 200 | Nc1ccccc1Oc1nc(Nc2ccc3c(c2)OCO3)ncc1Br [Compound 321b]
31 | < 200 | COc1cc(Nc2ncc(Br)c(Oc3ccccc3NC(=O)C(F)(F)F)n2)cc(OC)c1OC [Compound 323]
32 | > 2000 | COc1cc(Nc2ncc(Br)c(Oc3cccc4cccnc34)n2)cc(OC)c1OC [Compound 324a]
33 | > 2000 | CNC(=O)c1ccccc1Oc1nc(Nc2ccc3c(c2)CCC(=O)N3)ncc1Br [Compound 325]
34 | > 2000 | Oc1nc(Nc2cnc3[nH]ccc3c2)ncc1C(F)(F)F [Compound 326]
35 | > 2000 | CNC(=O)Cc1ccccc1Oc1nc(Nc2cc(OC)c(OC)c(OC)c2)ncc1Br [Compound 327]
36 | > 2000 | COc1cc(Nc2ncc(Br)c(Oc3ccccc3CNC(C)=O)n2)cc(OC)c1OC [Compound 328]
37 | > 2000 | COc1cc(Nc2ncc(Br)c(Oc3cccc4cc[nH]c34)n2)cc(OC)c1OC [Compound 329a]
38 | > 2000 | COc1cc(Nc2nc(Oc3cccc4cc[nH]c34)ncc2Br)cc(OC)c1OC [Compound 329b]
39 | > 2000 | COc1cc(Nc2ncc(Br)c(Oc3cccc4c3CCCC4)n2)cc(OC)c1OC [Compound 330a]
40 | > 2000 | COc1cc(Nc2nc(Oc3cccc4c3CCCC4)ncc2Br)cc(OC)c1OC [Compound 330b]
41 | > 2000 | COc1cc(Nc2ncc(Br)c(-n3nnc4ccccc43)n2)cc(OC)c1OC [Compound 331a]
42 | 200 to 2000 | COc1cc(Nc2nc(-n3nnc4ccccc43)ncc2Br)cc(OC)c1OC [Compound 331b]
43 | < 200 | O=C(C1CC1)N1CCc2cc(Nc3ncc(C(F)(F)F)c(NC4CC4)n3)ccc2C1 [Compound 332]
44 | < 200 | O=C1CCc2cc(Nc3ncc(C(F)(F)F)c(NCCCNC(=O)C4CC4)n3)ccc2N1 [Compound 333]

Row | IC50 [nM] | SMILES
45 | < 200 | O=c1[nH][nH]c(=O)c2cc(Nc3ncc(C(F)(F)F)c(NC4CC4)n3)ccc12 [Compound 334]
46 | > 2000 | COc1cc(Nc2ncc(Br)c(Oc3cccc4c3N(C(C)=O)CCC4)n2)cc(OC)c1OC [Compound 335a]
47 | < 200 | COc1cc(Nc2nc(Oc3cccc4c3N(C(C)=O)CCC4)ncc2Br)cc(OC)c1OC [Compound 335b]
48 | > 2000 | COc1cc(Nc2ncc(Br)c(Oc3ccccc3O)n2)cc(OC)c1OC [Compound 336]
49 | > 2000 | CNC(=O)c1ccccc1COc1nc(Nc2cc(OC)c(OC)c(OC)c2)ncc1Br [Compound 338]
50 | < 200 | CCN1CCOc2cc(Nc3nc(Nc4ccc5c(c4)CCC(=O)N5)ncc3Br)cnc21 [Compound 343]
51 | < 200 | CCN1CCOc2cc(Nc3ncc(C(F)(F)F)c(NC4CC4)n3)cnc21 [Compound 344]
52 | > 2000 | COc1cc(Nc2ncc(Br)c(Oc3ccccc3NS(C)(=O)=O)n2)cc(OC)c1OC [Compound 345]
53 | < 200 | COc1cc(Nc2ncc(C(F)(F)F)c(Oc3ccccc3N)n2)cc(OC)c1OC [Compound 346]
54 | < 200 | O=C1CCc2cc(Nc3ncc(C(F)(F)F)c(Nc4ccccc4CO)n3)ccc2N1 [Compound 347]
55 | > 2000 | COc1cc(Nc2ncc(Cl)c(Nc3ccccc3CO)n2)cc(OC)c1OC [Compound 348]
56 | > 2000 | CC(=O)NNc1nc(Nc2ccc3c(c2)CCC(=O)N3)ncc1C(F)(F)F [Compound 350]
57 | > 2000 | COc1cc(Nc2ncc(Br)c(Oc3cccc4ccncc34)n2)cc(OC)c1OC [Compound 351]
58 | > 2000 | COc1cc(Nc2ncc(Br)c(Oc3cccc4[nH]nnc34)n2)cc(OC)c1OC [Compound 352]
59 | > 2000 | OCc1ccccc1Nc1nc(Nc2cc(F)c(F)c(F)c2)ncc1Br [Compound 353]
60 | > 2000 | COc1cc(Nc2ncc(Br)c(Oc3cccc(O)c3[N+](=O)[O-])n2)cc(OC)c1OC [Compound 354]
61 | > 2000 | COc1cc(Nc2ncc(Br)c(Oc3ccccc3C3=NC(C)(C)CO3)n2)cc(OC)c1OC [Compound 355]
62 | > 2000 | COc1cc(Nc2ncc(Br)c(Oc3ccccc3[S+](C)[O-])n2)cc(OC)c1OC (stereo not shown) [Compound 356]
63 | 200 to 2000 | O=C1CCc2cc(Nc3ncc(C(F)(F)F)c(OCCN4CCOC4=O)n3)ccc2N1 [Compound 357]
64 | > 2000 | Nc1nc(N(C(=O)C2CC2)c2ccc3c(c2)CCC(=O)N3)ncc1C(F)(F)F [Compound 358]
